# Data published in ChEMBL document CHEMBL3885861, “Open TG-GATES”.
# Species: Rattus norvegicus
# Test: Open TG-GATES - Regimen: Daily Repeat
# Assay type: toxicity, organism-based, Sprague-Dawley
# Design: regimen Daily Repeat, gender Male, age 6 weeks
# Details: in vivo, po, 1000 mg/kg, route gavage, dose level High; for APTT / Bas / Eos / Fbg / Hb / Ht / Lym / MCH / MCHC / MCV / Mono / Neu / PT / Plat / RBC / Ret / WBC: tissue Blood; for KIDNEY_L / KIDNEY_R / KIDNEY_TOTAL: tissue Kidney; for LIVER: tissue Liver; for A/G / ALP / ALT / AST / BUN / CRE / Ca / Cl / DBIL / GLC / IP / K / LDH / Na / PL / RALB / TBIL / TC / TG / TP / gamma-GTP: tissue Plasma
compound,measurement,setting,value
COc1ccc(Cl)cc1C(=O)NCCc1ccc(S(=O)(=O)NC(=O)NC2CCCCC2)cc1 [GLYBURIDE],TERMINAL_BW,"72 h, time 3 day",228 g
same,APTT,"72 h, time 3 day",20.6 s
same,Bas,"72 h, time 3 day",0%
same,Eos,"72 h, time 3 day",1.2%
same,Fbg,"72 h, time 3 day",221.4 mg/dL
same,Hb,"72 h, time 3 day",13.5 g/dL
same,Ht,"72 h, time 3 day",40.2%
same,Lym,"72 h, time 3 day",79.2%
same,MCH,"72 h, time 3 day",21.1 pg
same,MCHC,"72 h, time 3 day",33.6%
same,MCV,"72 h, time 3 day",62.9 fL
same,Mono,"72 h, time 3 day",2.4%
same,Neu,"72 h, time 3 day",16.4%
same,PT,"72 h, time 3 day",12.3 s
same,Plat,"72 h, time 3 day",120.1 x10_4/uL
same,RBC,"72 h, time 3 day",640 x10_4/ul
same,Ret,"72 h, time 3 day",5.2%
same,WBC,"72 h, time 3 day",112.9 x10_2/uL
same,KIDNEY_L,"72 h, time 3 day",1 g
same,KIDNEY_R,"72 h, time 3 day",1 g
same,KIDNEY_TOTAL,"72 h, time 3 day",2 g
same,LIVER,"72 h, time 3 day",11.1 g
same,A/G,"72 h, time 3 day",1.6
same,ALP,"72 h, time 3 day",893.4 IU/L
same,ALT,"72 h, time 3 day",36.4 IU/L
same,AST,"72 h, time 3 day",61.4 IU/L
same,BUN,"72 h, time 3 day",15.2 mg/dL
same,CRE,"72 h, time 3 day",0.4 mg/dL
same,Ca,"72 h, time 3 day",10.8 mg/dL
same,Cl,"72 h, time 3 day",102.8 meq/L
same,DBIL,"72 h, time 3 day",0.094 mg/dL
same,GLC,"72 h, time 3 day",200.2 mg/dL
same,IP,"72 h, time 3 day",6.7 mg/dL
same,K,"72 h, time 3 day",4 meq/L
same,LDH,"72 h, time 3 day",179.2 IU/L
same,Na,"72 h, time 3 day",140.6 meq/L
same,PL,"72 h, time 3 day",150.2 mg/dL
same,RALB,"72 h, time 3 day",3.4 g/dL
same,TBIL,"72 h, time 3 day",0.1 mg/dL
same,TC,"72 h, time 3 day",74.4 mg/dL
same,TG,"72 h, time 3 day",93.4 mg/dL
same,TP,"72 h, time 3 day",5.5 g/dL
same,gamma-GTP,"72 h, time 3 day",1 IU/L
same,TERMINAL_BW,"[…], time 7 day",260.9 g
same,TERMINAL_BW,"[…], time 14 day",308.1 g
same,TERMINAL_BW,"[…], time 28 day",392.8 g
same,APTT,"[…], time 7 day",19.8 s
same,Bas,"[…], time 7 day",0.2%
same,Eos,"[…], time 7 day",1%
same,Fbg,"[…], time 7 day",220 mg/dL
same,Hb,"[…], time 7 day",13.6 g/dL
same,Ht,"[…], time 7 day",40%
same,Lym,"[…], time 7 day",81%
same,MCH,"[…], time 7 day",20.7 pg
same,MCHC,"[…], time 7 day",34%
same,MCV,"[…], time 7 day",60.8 fL
same,Mono,"[…], time 7 day",2.2%
same,Neu,"[…], time 7 day",15.2%
same,PT,"[…], time 7 day",12.4 s
same,Plat,"[…], time 7 day",129 x10_4/uL
same,RBC,"[…], time 7 day",658.4 x10_4/ul
same,Ret,"[…], time 7 day",5.2%
same,WBC,"[…], time 7 day",109.6 x10_2/uL
same,APTT,"[…], time 14 day",20.5 s
same,Bas,"[…], time 14 day",0%
same,Eos,"[…], time 14 day",0.8%
same,Fbg,"[…], time 14 day",224.4 mg/dL
same,Hb,"[…], time 14 day",14 g/dL
same,Ht,"[…], time 14 day",40.6%
same,Lym,"[…], time 14 day",81%
same,MCH,"[…], time 14 day",20.7 pg
same,MCHC,"[…], time 14 day",34.6%
same,MCV,"[…], time 14 day",59.9 fL
same,Mono,"[…], time 14 day",2.4%
same,Neu,"[…], time 14 day",15.2%
same,PT,"[…], time 14 day",12.2 s
same,Plat,"[…], time 14 day",116.7 x10_4/uL
same,RBC,"[…], time 14 day",678.6 x10_4/ul
same,Ret,"[…], time 14 day",4.5%
same,WBC,"[…], time 14 day",129.3 x10_2/uL
same,APTT,"[…], time 28 day",20.5 s
same,Bas,"[…], time 28 day",0%
same,Eos,"[…], time 28 day",1%
same,Fbg,"[…], time 28 day",218.2 mg/dL
same,Hb,"[…], time 28 day",14.9 g/dL
same,Ht,"[…], time 28 day",42.8%
same,Lym,"[…], time 28 day",81.4%
same,MCH,"[…], time 28 day",19.5 pg
same,MCHC,"[…], time 28 day",34.8%
same,MCV,"[…], time 28 day",56 fL
same,Mono,"[…], time 28 day",2.4%
same,Neu,"[…], time 28 day",14.4%
same,PT,"[…], time 28 day",12.3 s
same,Plat,"[…], time 28 day",99 x10_4/uL
same,RBC,"[…], time 28 day",766.2 x10_4/ul
same,Ret,"[…], time 28 day",2.7%
same,WBC,"[…], time 28 day",123.6 x10_2/uL
same,KIDNEY_L,"[…], time 7 day",1.1 g
same,KIDNEY_R,"[…], time 7 day",1.1 g
same,KIDNEY_TOTAL,"[…], time 7 day",2.2 g
same,KIDNEY_L,"[…], time 14 day",1.2 g
same,KIDNEY_R,"[…], time 14 day",1.2 g
same,KIDNEY_TOTAL,"[…], time 14 day",2.4 g
same,KIDNEY_L,"[…], time 28 day",1.3 g
same,KIDNEY_R,"[…], time 28 day",1.4 g
same,KIDNEY_TOTAL,"[…], time 28 day",2.7 g
same,LIVER,"[…], time 7 day",12.5 g
same,LIVER,"[…], time 14 day",13.8 g
same,LIVER,"[…], time 28 day",16 g
same,A/G,"[…], time 7 day",1.4
same,ALP,"[…], time 7 day",962.2 IU/L
same,ALT,"[…], time 7 day",35 IU/L
same,AST,"[…], time 7 day",61.6 IU/L
same,BUN,"[…], time 7 day",16.2 mg/dL
same,CRE,"[…], time 7 day",0.4 mg/dL
same,Ca,"[…], time 7 day",10.8 mg/dL
same,Cl,"[…], time 7 day",102.6 meq/L
same,DBIL,"[…], time 7 day",0.1 mg/dL
same,GLC,"[…], time 7 day",212 mg/dL
same,IP,"[…], time 7 day",6.9 mg/dL
same,K,"[…], time 7 day",3.8 meq/L
same,LDH,"[…], time 7 day",169.4 IU/L
same,Na,"[…], time 7 day",140.8 meq/L
same,PL,"[…], time 7 day",151.4 mg/dL
same,RALB,"[…], time 7 day",3.3 g/dL
same,TBIL,"[…], time 7 day",0.2 mg/dL
same,TC,"[…], time 7 day",73 mg/dL
same,TG,"[…], time 7 day",123.6 mg/dL
same,TP,"[…], time 7 day",5.6 g/dL
same,gamma-GTP,"[…], time 7 day",1.4 IU/L
same,A/G,"[…], time 14 day",1.5
same,ALP,"[…], time 14 day",801.6 IU/L
same,ALT,"[…], time 14 day",33.4 IU/L
same,AST,"[…], time 14 day",56.8 IU/L
same,BUN,"[…], time 14 day",14.6 mg/dL
same,CRE,"[…], time 14 day",0.5 mg/dL
same,Ca,"[…], time 14 day",10.6 mg/dL
same,Cl,"[…], time 14 day",102.8 meq/L
same,DBIL,"[…], time 14 day",0.1 mg/dL
same,GLC,"[…], time 14 day",174.6 mg/dL
same,IP,"[…], time 14 day",6.7 mg/dL
same,K,"[…], time 14 day",3.7 meq/L
same,LDH,"[…], time 14 day",115 IU/L
same,Na,"[…], time 14 day",141 meq/L
same,PL,"[…], time 14 day",151 mg/dL
same,RALB,"[…], time 14 day",3.6 g/dL
same,TBIL,"[…], time 14 day",0.2 mg/dL
same,TC,"[…], time 14 day",72.4 mg/dL
same,TG,"[…], time 14 day",102.2 mg/dL
same,TP,"[…], time 14 day",5.9 g/dL
same,gamma-GTP,"[…], time 14 day",1.4 IU/L
same,A/G,"[…], time 28 day",1.4
same,ALP,"[…], time 28 day",552.4 IU/L
same,ALT,"[…], time 28 day",31.6 IU/L
same,AST,"[…], time 28 day",55.2 IU/L
same,BUN,"[…], time 28 day",16 mg/dL
same,CRE,"[…], time 28 day",0.5 mg/dL
same,Ca,"[…], time 28 day",10.3 mg/dL
same,Cl,"[…], time 28 day",103 meq/L
same,DBIL,"[…], time 28 day",0.098 mg/dL
same,GLC,"[…], time 28 day",230.2 mg/dL
same,IP,"[…], time 28 day",6.5 mg/dL
same,K,"[…], time 28 day",4.2 meq/L
same,LDH,"[…], time 28 day",131 IU/L
same,Na,"[…], time 28 day",141 meq/L
same,PL,"[…], time 28 day",153.2 mg/dL
same,RALB,"[…], time 28 day",3.5 g/dL
same,TBIL,"[…], time 28 day",0.2 mg/dL
same,TC,"[…], time 28 day",75.6 mg/dL
same,TG,"[…], time 28 day",102 mg/dL
same,TP,"[…], time 28 day",6 g/dL
same,gamma-GTP,"[…], time 28 day",0.8 IU/L
